PubChem BioAssay AID248 (DTP/NCI, 2004)
Several values for one entry are separate records, joined by “and”; a condition that tells them apart may be missing. Equal entries are not always repeated. Inconclusive results and toxic doses are left out. Rule as the data show it: active = T/C of 150% or more; inactive = T/C below 125%.

Test system: L1210 leukemia ip in BDF1 mice, survival T/C
Assay: NCI In Vivo Anticancer Drug Screen. Data for tumor model L1210 Leukemia (intraperitoneal) in B6D2F1 (BDF1) mice
Details: endpoint: mean survival time, higher = longer survival
Summary of the method: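 Read-out is survival time, reported as the treated-group measurement over the vehicle-control measurement.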

[1] = dose: 100.0 mg/kg/injection, schedule: Q01DX009 (ip), vehicle: saline
[2] = dose: 100.0 mg/kg/injection, schedule: Q04DX003 (ip), vehicle: saline with Tween-80
[3] = dose: 200.0 mg/kg/injection, schedule: Q04DX003 (ip), vehicle: saline with Tween-80
[4] = dose: 400.0 mg/kg/injection, schedule: Q04DX003 (ip), vehicle: saline with Tween-80
[5] = dose: 100.0 mg/kg/injection, schedule: Q01DX009 (ip), vehicle: Klucel (hydroxypropylcellulose) (HPC)
[6] = dose: 200.0 mg/kg/injection, schedule: Q01DX009 (ip), vehicle: Klucel (hydroxypropylcellulose) (HPC)
[7] = dose: 400.0 mg/kg/injection, schedule: Q01DX009 (ip), vehicle: Klucel (hydroxypropylcellulose) (HPC)
[8] = dose: 50.0 mg/kg/injection, schedule: Q01DX001 (ip), vehicle: carboxymethylcellulose (CMC)
[9] = dose: 100.0 mg/kg/injection, schedule: Q01DX001 (ip), vehicle: carboxymethylcellulose (CMC)
[10] = dose: 200.0 mg/kg/injection, schedule: Q01DX001 (ip), vehicle: carboxymethylcellulose (CMC)
[11] = dose: 100.0 mg/kg/injection, schedule: Q01DX001 (ip), vehicle: saline
[12] = dose: 25.0 mg/kg/injection, schedule: Q01DX009 (ip), vehicle: Klucel (hydroxypropylcellulose) (HPC)
[13] = dose: 50.0 mg/kg/injection, schedule: Q01DX009 (ip), vehicle: Klucel (hydroxypropylcellulose) (HPC)
[14] = dose: 50.0 mg/kg/injection, schedule: Q01DX009 (ip), vehicle: saline
[15] = dose: 100.0 mg/kg/injection, schedule: Q04DX003 (ip), vehicle: Klucel (hydroxypropylcellulose) (HPC)
[16] = dose: 200.0 mg/kg/injection, schedule: Q04DX003 (ip), vehicle: Klucel (hydroxypropylcellulose) (HPC)
[17] = dose: 400.0 mg/kg/injection, schedule: Q04DX003 (ip), vehicle: Klucel (hydroxypropylcellulose) (HPC)

Measured: T/C

C/C=C/C(=O)Nc1cc(C(F)(F)F)ccc1Cl
inactive: dose: 25.0 mg/kg/injection, schedule: Q01DX009 (ip), vehicle: saline with Tween-80 93 % of control and 97 % of control | dose: 50.0 mg/kg/injection, schedule: Q01DX009 (ip), vehicle: saline with Tween-80 97 % of control and 89 % of control | dose: 50.0 mg/kg/injection, schedule: Q04DX003 (ip), vehicle: saline with Tween-80 98 % of control | dose: 100.0 mg/kg/injection, schedule: Q01DX001 (ip), vehicle: saline with Tween-80 98 % of control | dose: 100.0 mg/kg/injection, schedule: Q01DX009 (ip), vehicle: saline with Tween-80 96 % of control and 90 % of control | [1] 94 % of control and 102 % of control | dose: 100.0 mg/kg/injection, schedule: Q04DX002 (ip), vehicle: saline 102 % of control and 109 % of control | [2] 98 % of control and 89 % of control | dose: 200.0 mg/kg/injection, schedule: Q01DX001 (ip), vehicle: saline with Tween-80 88 % of control | dose: 200.0 mg/kg/injection, schedule: Q01DX009 (ip), vehicle: saline 88 % of control | dose: 200.0 mg/kg/injection, schedule: Q04DX002 (ip), vehicle: saline 94 % of control and 103 % of control | [3] 109 % of control | dose: 400.0 mg/kg/injection, schedule: Q04DX002 (ip), vehicle: saline 95 % of control | [4] 95 % of control

CC1CN(C(=S)Nc2cccc3ccccc23)CC(C)O1 (stereo not drawn)
inactive: [5] 100 % of control | [6] 97 % of control | [7] 95 % of control

S=c1c2ccccc2oc2ccccc12
inactive: dose: 50.0 mg/kg/injection, schedule: Q04DX002 (ip), vehicle: saline with Tween-80 93 % of control | dose: 100.0 mg/kg/injection, schedule: Q04DX002 (ip), vehicle: saline with Tween-80 93 % of control | dose: 200.0 mg/kg/injection, schedule: Q04DX002 (ip), vehicle: saline with Tween-80 87 % of control | dose: 400.0 mg/kg/injection, schedule: Q04DX002 (ip), vehicle: saline with Tween-80 97 % of control

CC1(COC(=O)Nc2cccc3ccccc23)CC2C=CC1C2 (stereo not drawn)
inactive: dose: 75.0 mg/kg/injection, schedule: Q01DX001 (ip), vehicle: saline with Tween-80 96 % of control | dose: 150.0 mg/kg/injection, schedule: Q01DX001 (ip), vehicle: saline with Tween-80 91 % of control | dose: 300.0 mg/kg/injection, schedule: Q01DX001 (ip), vehicle: saline with Tween-80 88 % of control

CNC(=O)Nc1cc(Cl)c(OC)cc1OC
inactive: [5] 96 % of control | [6] 95 % of control | [7] 96 % of control

CC(=O)OC1CCSc2ccccc21 (stereo not drawn)
inactive: [8] 95 % of control | [9] 93 % of control | [10] 104 % of control | dose: 400.0 mg/kg/injection, schedule: Q01DX001 (ip), vehicle: carboxymethylcellulose (CMC) 90 % of control

CC(C)(CO)C(O)C(=O)NCCC(=O)c1ccccc1 (stereo not drawn)
inactive: [11] 103 % of control | dose: 200.0 mg/kg/injection, schedule: Q01DX001 (ip), vehicle: saline 92 % of control | dose: 400.0 mg/kg/injection, schedule: Q01DX001 (ip), vehicle: saline 103 % of control

O=C1OCC/C1=C/OCCCCCO/C=C1/CCOC1=O
inactive: dose: 100.0 mg/kg/injection, schedule: Q04DX002 (ip), vehicle: Klucel (hydroxypropylcellulose) (HPC) 106 % of control | dose: 200.0 mg/kg/injection, schedule: Q04DX002 (ip), vehicle: Klucel (hydroxypropylcellulose) (HPC) 97 % of control | dose: 400.0 mg/kg/injection, schedule: Q04DX002 (ip), vehicle: Klucel (hydroxypropylcellulose) (HPC) 90 % of control

O=C(NNCc1ccccc1)C(O)C(O)C(O)CO (stereo not drawn)
inactive: [12] 93 % of control | [13] 96 % of control | [5] 104 % of control | [6] 94 % of control | [7] 103 % of control

CCCCN(C(C)=O)c1ccccc1
inactive: dose: 100.0 mg/kg/injection, schedule: Q01DX001 (ip), vehicle: Klucel (hydroxypropylcellulose) (HPC) 97 % of control | dose: 200.0 mg/kg/injection, schedule: Q01DX001 (ip), vehicle: Klucel (hydroxypropylcellulose) (HPC) 91 % of control | dose: 400.0 mg/kg/injection, schedule: Q01DX001 (ip), vehicle: Klucel (hydroxypropylcellulose) (HPC) 94 % of control

NNCC(F)(F)F
inactive: [11] 101 % of control

BrP(Nc1ccccc1)(c1ccccc1)(c1ccccc1)c1ccccc1
inactive: dose: 10.0 mg/kg/injection, schedule: Q01DX001 (ip), vehicle: acetone 100 % of control | dose: 20.0 mg/kg/injection, schedule: Q01DX001 (ip), vehicle: acetone 101 % of control | dose: 40.0 mg/kg/injection, schedule: Q01DX001 (ip), vehicle: acetone 91 % of control

O=S(=O)(Cl)c1cc(Cl)ccc1Cl
inactive: [12] 95 % of control | [13] 98 % of control | [5] 97 % of control

CC[P+](CC)(CC)CCCCI
inactive: dose: 12.0 mg/kg/injection, schedule: Q01DX009 (ip), vehicle: saline 94 % of control | dose: 25.0 mg/kg/injection, schedule: Q01DX009 (ip), vehicle: saline 101 % of control | dose: 25.0 mg/kg/injection, schedule: Q04DX003 (ip), vehicle: saline 105 % of control | [14] 101 % of control and 91 % of control | dose: 50.0 mg/kg/injection, schedule: Q04DX003 (ip), vehicle: saline 114 % of control

CN(C)c1ccccc1C1CCCCCC1O (stereo not drawn)
inactive: dose: 75.0 mg/kg/injection, schedule: Q01DX001 (ip), vehicle: carboxymethylcellulose (CMC) 101 % of control | dose: 150.0 mg/kg/injection, schedule: Q01DX001 (ip), vehicle: carboxymethylcellulose (CMC) 90 % of control | dose: 300.0 mg/kg/injection, schedule: Q01DX001 (ip), vehicle: carboxymethylcellulose (CMC) 90 % of control

O=C1/C(=N/O)CCc2ccccc21
inactive: [14] 102 % of control | [9] 103 % of control | [1] 103 % of control | [10] 97 % of control

O=C(NNC(=O)c1ccc(Cl)cc1)Nc1ccc(F)c(Cl)c1
inactive: [5] 97 % of control | [6] 104 % of control | [7] 100 % of control

O=P(NO)(Oc1ccccc1)Oc1ccccc1
inactive: [8] 101 % of control | [9] 95 % of control | [10] 100 % of control

c1ccc2c(c1)OC1(CCSCC1)O2
inactive: [2] 98 % of control | [3] 95 % of control | [4] 97 % of control

CN(C)c1ccc(/C=C2\CCC/C(=C\c3ccc(N(C)C)cc3)C2=O)cc1
inactive: [15] 96 % of control | [16] 96 % of control | [17] 92 % of control

O=C(O)CCCCSc1ncnc2nc[nH]c12
inactive: dose: 15.0 mg/kg/injection, schedule: Q01DX009 (ip), vehicle: saline with Tween-80 106 % of control | dose: 15.0 mg/kg/injection, schedule: Q01DX009 (oral), vehicle: saline with Tween-80 98 % of control | dose: 30.0 mg/kg/injection, schedule: Q01DX009 (ip), vehicle: saline with Tween-80 103 % of control | dose: 30.0 mg/kg/injection, schedule: Q01DX009 (oral), vehicle: saline with Tween-80 86 % of control | dose: 60.0 mg/kg/injection, schedule: Q01DX009 (ip), vehicle: saline with Tween-80 92 % of control | dose: 60.0 mg/kg/injection, schedule: Q01DX009 (oral), vehicle: saline with Tween-80 95 % of control | [5] 113 % of control | [15] 107 % of control | [2] 103 % of control | dose: 120.0 mg/kg/injection, schedule: Q01DX009 (ip), vehicle: saline with Tween-80 123 % of control | dose: 120.0 mg/kg/injection, schedule: Q01DX009 (oral), vehicle: saline with Tween-80 109 % of control | [6] 101 % of control | [16] 102 % of control | [3] 104 % of control | dose: 240.0 mg/kg/injection, schedule: Q01DX009 (ip), vehicle: saline with Tween-80 105 % of control | dose: 240.0 mg/kg/injection, schedule: Q01DX009 (oral), vehicle: saline with Tween-80 91 % of control | [7] 116 % of control | [17] 115 % of control | [4] 103 % of control | dose: 480.0 mg/kg/injection, schedule: Q01DX009 (ip), vehicle: saline with Tween-80 118 % of control | dose: 480.0 mg/kg/injection, schedule: Q01DX009 (oral), vehicle: saline with Tween-80 100 % of control | dose: 720.0 mg/kg/injection, schedule: Q01DX009 (oral), vehicle: saline with Tween-80 100 % of control
